This note sets out measurements from US20220313651A1, “INHIBITORS OF ZIKA VIRUS INFECTION” (priority 2019, published 2022).

Assay [1] addresses T1, binding between ZIKV EDIII and EDIII-specific mAb SMZAb5 (Zika virus, UniProt Q32ZE1, D679E/I627V/V603I/V629A).
T1 construct: human Fc (C)
The following applies: ELISA; EDIII 1.5 μg/ml, mAb 0.5 μg/ml; read-out: IC50, blocking EDIII-mAb binding, SMZAb5. As to the method:
(§1) Binding of compounds (NPs) to ZIKV full-length E (FIG. 3A), EDIII (FIG. 3B), and NS2B-NS3 (FIG. 3C) proteins, was detected by ELISA. The percent binding was reported in the presence or absence of serially diluted NPs using the formula (1-[E/EDIII-NP]/[E/EDIII])×100 (for E/EDIII binding) or (1-[NS2B-NS3-NP]/[NS2B-NS3])×100 (for NSEB-NS3 binding). […] The concentrations of ZIKV EDIII and mAbs were 1.5 and 0.5 μg/ml, respectively. […] The concentrations of substrate (Bz-Nle-Lys-Lys-Arg-AMC) and ZIKV NS2B-NS3 protein were 4 μM and 1 μg/ml, respectively. The percent inhibition of protease activity was calculated in the presence or absence of serially diluted compounds using the formula (1-[NS2B-NS3-substrate-NP]/[NS2B-NS3-substrate])×100. The IC50 values were calculated based on the percent inhibition. The data are expressed as mean±s.e.m. (n=4).
(§2) ELISA was also used to determine the ability of ST087010 in inhibition of the binding between ZIKV EDIII and EDIII-specific human mAbs (SMZAb5, ZKA64-LALA, ZV-67, or Z004) or EDI/II-specific human mAb (ZKA78) control.
In general terms: ELISA stands for enzyme-linked immunosorbent assay.

Assay [2] addresses T2, binding between ZIKV EDIII and EDIII-specific mAb Z004 (Zika virus, UniProt Q32ZE1, D679E/I627V/V603I/V629A).
T2 construct: human Fc (C)
The following applies: ELISA; EDIII 1.5 μg/ml, mAb 0.5 μg/ml; read-out: IC50, blocking EDIII-mAb binding, Z004. As to the method: as §1, §2

The target in assay [3] is T3, binding between ZIKV EDIII and EDIII-specific mAb ZKA64-LALA (Zika virus, UniProt Q32ZE1, D679E/I627V/V603I/V629A).
T3 construct: human Fc (C)
The following applies: ELISA; EDIII 1.5 μg/ml, mAb 0.5 μg/ml; read-out: IC50, blocking EDIII-mAb binding, ZKA64-LALA. How it is done: as §1, §2

Assay [4] deals with T4, binding between ZIKV EDIII and EDIII-specific mAb ZV-67 (Zika virus, UniProt Q32ZE1, D679E/I627V/V603I/V629A).
T4 construct: human Fc (C)
The following applies: ELISA; EDIII 1.5 μg/ml, mAb 0.5 μg/ml; read-out: IC50, blocking EDIII-mAb binding, ZV-67. As to the method: as §1, §2

Assay [5] concerns ZIKV human strain PAN2016. As to the kind of experiment: ZIKV PAN2016 infection of Ifnar1-/- mice: tissue viral titers, immunofluorescence. Format: in vivo. The following applies: 20 mg/kg i.p., 5 dpi. The source says:
FIG. 8A is a schematic diagram of experimental procedures. […] The treated mice were infected with ZIKV human strain R103451 (200 plaque forming unit (PFU)/mouse), followed by evaluation of survival rate (FIG. 8B) or weight changes (FIG. 8C) for 21 days. The data are expressed as mean±s.e.m. of mice in each group (n=6). In a separate experiment, ST087010 or gossypol-treated mice were infected with ZIKV human strain PAN2016 (200, PFU/mouse). Five days post-infection (dpi), viral titers were detected in tissues by plaque assay (FIG. 8D), and ZIKV or caspase-3 signals were measured in eye (FIG. 8E) and testis ([…]) tissues by immunofluorescence staining. The data are expressed as mean±s.e.m. of mice in each group (n=5), and significant differences among different groups are shown as *, **, and ***. The detection limit is 25 PFU/g. ZIKV and caspase-3 (in FIG. 8E-F) were stained with anti-ZIKV and anti-active caspase-3 antibodies, respectively. Nuclei were stained with DAPI (40,6-diamidino-2-phenylindole). Representative images of immunofluorescence staining are shown. Magnification, 63×, and scale bar, 10 μm.
ST087010 was evaluated for protection against ZIKV infection in ZIKV-susceptible Ifnar1^−/− mice. Briefly, 7-8-week-old male mice were used, and two separate experiments were performed. […] These mice were infected by i.p. injection with ZIKV (human strain R103451, 200 PFU/mouse), and observed daily for weight changes and survival until 21 days post-infection (dpi). […]
Plaque assay was used to detect viral titers in ZIKV-infected tissues. […] ZIKV titers in tissues were measured from ˜40 mg of samples, and thus the detection limit is about 25 PFU/g of tissues.
Immunofluorescence staining was carried out to detect ZIKV and caspase-3 signals in ZIKV-infected mouse tissues. […] The slides were analyzed using a confocal microscope (Zeiss LSM 880) and ZEN software, and fluorescent signals were quantified by ImageJ software. […]

Broadly, the IC50 is the concentration that inhibits the measured activity by half.

Structures are written as SMILES.

T3 sequence (Q32ZE1 584-695 V603I/I627V/V629A/D679E): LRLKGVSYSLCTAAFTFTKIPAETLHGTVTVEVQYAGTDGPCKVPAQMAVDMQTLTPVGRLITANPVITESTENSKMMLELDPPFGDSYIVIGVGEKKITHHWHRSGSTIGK
T2 sequence (Q32ZE1 584-695 V603I/I627V/V629A/D679E): as above
T4 sequence (Q32ZE1 584-695 V603I/I627V/V629A/D679E): as above
T1 sequence (Q32ZE1 584-695 V603I/I627V/V629A/D679E): as above

For the compound `Cc1cc2c(C(C)C)c(O)c(O)c(/C=N/n3c(=O)[nH][nH]c3=O)c2c(O)c1-c1c(C)cc2c(C(C)C)c(O)c(O)c(/C=N/n3c(=O)[nH][nH]c3=O)c2c1O` [ST087010], the IC50 in assay [1] was determined as 5.72 µM; in assay [2] it was 44.5 µM; in assay [3] it was 4.17 µM; in assay [4] it was 6.7 µM. In addition, in assay [5] (ZIKV PAN2016 200 PFU/mouse, heart, testis, eye, kidney, brain), the “Viral titers in tissues (plaque assay)” value is reported as “significantly reduced viral titers”. Besides, the “ZIKV+ signals in eye and testis tissues” value in assay [5] (ZIKV PAN2016, immunofluorescence) is given as “undetectable”. For the same compound, the “Caspase-3 staining in eye and testis tissues” value in assay [5] (ZIKV PAN2016, immunofluorescence, vs DMSO) was “undetectable or diminished staining”.
